No end group written: not given here.
How the values were obtained:
Assay type in all cases: biochemical
[1] = system: B-phycoerythrin from Porphyrium cruentum; assay: peroxy free radical trapping test (protection of B-phycoerythrin from destruction by peroxy free radicals); conditions: B-phycoerythrin 10 nM, 2,2'-azobis-2-methylpropionamidine 500 μM, 37° C.; peptide 20 nM to 20 μM
Method: The ability of peptides to protect the globular protein B-phycoerythrin from destruction by peroxy free radicals was tested. This was done by oxidizing B-phycoerythrin from Porphyrium cruentum (10 nM) in phosphate-buffered saline solution using 2,2′-azobis-2-methylpropionamidine (500 μM) at 37° C. as source of peroxy free radicals. Destruction of the protein was measured by observing the decrease in the protein fluorescence with increasing incubation time (flash fluorimetry, excitation window 340±50 nm, emission window 572±6 nm) . The results of this experiment for the secretory peptides GnRH (human) and for the synthetic peptides WY, WGGGY, WW and YY are shown in FIG. 1A. The meanings in the individual diagrams are • the control and ⋄ a concentration of 20 nM, ∘ 200 nM, ▾ 2 μM and ∇ 20 μM of the particular peptide (quadruplicate determinations) .
The results are shown in FIG. 2. • means the control, ∘ means a concentration of 200 nM, ▾ means a concentration of 2 μM and ∇ means a concentration of 20 μM of the particular peptide (quadruplicate determinations).
Experiments were carried out to test the antioxidant effect of other substances in the peroxy free radical trapping test described in example 1. The results are shown in FIG. 3 (see FIG. 1A for explanation) .

human LDL = assay: protection of LDL from copper-catalyzed oxidation (conjugated dienes, 234 nm); conditions: LDL 0.1 mg/ml protein, 10 μM CuSO4, 37° C.; peptide 20 μM and 100 μM
Method: In a further test, the ability of the peptides to protect LDL from copper-catalyzed oxidation was tested. This was done by incubating fresh human LDL (0.1 mg/ml protein) with 10 μM CuSO4 at 37° C. The reaction products of the LDL decomposition (conjugated dienes) were measured by photometry at 234 nm as described by Moosmann and Behl (Proc. Natl. Acad. Sci. USA 96 (1999), 8867). The three curves show the control, a concentration of 20 μM and a concentration of 100 μM of the particular peptide (duplicate determinations).

[2] = system: native rat brain membranes; assay: protection of brain membranes from oxidative damage by ascorbate (lipid peroxidation, chemiluminescence); conditions: membranes 0.5 mg/ml protein, 50 μM ascorbate, 37° C.; peptide 20 μM and 100 μM
Method: Secretory peptides are able to protect brain membranes from oxidative damage by ascorbate. This was done by oxidizing native rat brain membranes (0.5 mg/ml protein) by adding 50 μM ascorbate at 37° C. Single-photon measurement of the chemiluminescence (as measure of peroxidation reactions occurring) was measured for quantitative determination of the lipid peroxidation as described by Moosmann and Behl (supra). The results for GnRH (human) are shown in FIG. 1C. • means the control and ⋄ a concentration of 20 μM and ▪ a concentration of 100 μM of the particular peptide (duplicate determinations).

Substance | antioxidant effect in trapping peroxy free radicals (decrease in B-phycoerythrin fluorescence) [1] | antioxidant effect in preventing LDL oxidation (human LDL) | antioxidant effect in preventing peroxidation of brain lipids [2]
LRPG-amide (LRPG-NH2; listed as Homo sapiens) [GnRH 7-10] | complete loss of activity | – | –
SYGLRPG-amide (SYGLRPG-NH2; listed as Homo sapiens) [GnRH 4-10] | markedly reduced | – | –
WGGY (A synthetic peptide which functions as an antioxidant) | Analogous results | – | –
WGY | Analogous results | – | –
cyEHWSHDWKPG-amide (N-terminal pyroglutamate, C-terminal amide; listed as Petromyzon marinus) [GnRH (lamprey)] | Analogous results | – | –
cyEHWSYGLRPG-amide (N-terminal pyroglutamate, C-terminal amide; listed as Homo Sapiens) [GnRH (human)] | have antioxidant properties | have antioxidant properties | have antioxidant properties
cyEHWSYGWLPG-amide (HELM PEPTIDE1{[Glp].H.W.S.Y.G.W.L.P.G.[am]}$$$$V2.0; SMILES CC(C)C[C@H](NC(=O)[C@H](Cc1c[nH]c2ccccc12)NC(=O)CNC(=O)[C@H](Cc1ccc(O)cc1)NC(=O)[C@H](CO)NC(=O)[C@H](Cc1c[nH]c2ccccc12)NC(=O)[C@H](Cc1c[nH]cn1)NC(=O)[C@@H]1CCC(=O)N1)C(=O)N1CCC[C@H]1C(=O)NCC(N)=O; listed as Oncorhynchus tshawytscha) [GnRH (salmon)] | Analogous results | – | –
